Target: T1, glucokinase (GK), residues 12-465 of the human enzyme (Homo sapiens, UniProt P35557)
T1 construct: I.D. No. 1 corresponds to residues 12-465 of glucokinase; made in house; host or cells: E. coli DH10b-Tlr
T1 sequence (P35557 with tags, fused parts or gaps isoform P35557-2): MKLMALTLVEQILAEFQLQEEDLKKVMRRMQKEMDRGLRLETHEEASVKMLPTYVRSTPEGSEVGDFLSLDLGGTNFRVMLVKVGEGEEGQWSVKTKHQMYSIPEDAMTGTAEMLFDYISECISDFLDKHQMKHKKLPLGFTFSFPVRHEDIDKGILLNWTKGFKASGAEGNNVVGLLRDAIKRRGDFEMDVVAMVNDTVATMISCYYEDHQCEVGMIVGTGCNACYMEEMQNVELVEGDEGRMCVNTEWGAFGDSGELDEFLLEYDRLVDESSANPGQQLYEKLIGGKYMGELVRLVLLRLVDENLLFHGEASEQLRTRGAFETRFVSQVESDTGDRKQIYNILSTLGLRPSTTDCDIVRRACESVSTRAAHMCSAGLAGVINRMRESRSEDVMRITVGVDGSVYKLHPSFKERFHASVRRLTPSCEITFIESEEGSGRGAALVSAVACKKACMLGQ
Assay: Enzymatic glucokinase activity assay (KinaseGlo luminescence, ATP consumption)
Assay type: biochemical
Conditions: 5 μM ATP, 5 mM Glucose; for EC50: GK activation, Kact = concentration giving 50% of the maximal increase in GK activity, read-out: pKact; for Emax: calculated maximal gain in GK enzyme activity at a saturating concentration of the compound, read-out: % ACTmax
Text: The activity of compounds as glucokinase activators may be assayed in vitro, in vivo or in a cell line. Provided below is an enzymatic glucokinase activity assay.
Purified glucokinase may be obtained as follows. DNA encoding residues 12-465 of the full-length sequence of the human enzyme may be amplified by PCR and cloned into the HindIII and EcoRI sites of pFLAG-CTC (Sigma). SEQ. I.D. No. 1 corresponds to residues 12-465 of glucokinase.
The expression of recombinant glucokinase protein may be carried out by transformation and growth of DH10b-Tlr E. coli cells incorporating the (pFLAG-CTC) plasmid in LB media. Protein expression can be induced in this system by the addition of IPTG to the culture medium.
Recombinant protein may be isolated from cellular extracts by passage over Sepharose Q Fast Flow resin (Pharmacia). This partially purified GK extract may then be further purified by a second passage over Poros HQ 10 (Applied Biosystems). The purity of GK may be determined on denaturing SDS-PAGE gel. Purified GK may then be concentrated to a final concentration of 20.0 mg/ml. After flash freezing in liquid nitrogen, the proteins can be stored at −78° C. in a buffer containing 25 mM TRIS-HCl pH 7.6, 50 mM NaCl, and 0.5 mM TCEP.
The activation properties of compounds for GK may be determined using a black 384-well-plate format under the following reaction conditions: 25 mM Hepes pH 7.2, 25 mM NaCl, 10 mM MgCl2, 0.01% Brij35, 1 mM DTT, 5 μM ATP, 5 mM Glucose 2% DMSO. The amount of ATP consumed may be determined quantitatively by addition of equal volume of luciferase reagent (luciferase+beetle luciferin—KinaseGlo Luminescent Kinase Assay kit from Promega). The luminescence intensity may be measured by using the Analyst HT from LJL Biosystems.
The assay reaction may be initiated as follows: 4 μl of substrate mixture (12.5 μM ATP and 12.5 mM Glucose) was added to each well of the plate, followed by the addition of 2 μl of activator (2 fold serial dilutions for 11 data points for each activator) containing 10% DMSO. 4 μL of 1.25 nM GK solution may be added to initiate the reaction. The reaction mixture may then be incubated at room temperature for 60 min, and quenched and developed by addition of 10 μL of luciferase reagent. Luminescence intensities of the resulting reaction mixtures may be measured after a 10 min incubation at room temperature. The luminescence intensity may be measured by using the Analyst HT from LJL Biosystems.
pKact and % ACTmax values may be calculated by non-linear curve fitting of the compound concentrations and luminescence intensities to a standard inhibition/activation equation.

Compound | EC50 [nM] | Emax [%]
Cc1cc(S(=O)(=O)N2CCN([C@@H](CC3CCCCC3)C(=O)Nc3nccs3)C(=O)C2)c(C)s1 [Example 180, (S)-3-cyclohexyl-2-(4-(2,5-dimethylthiophen-3-ylsulfonyl)-2-oxopiperazin-1-yl)-N-(thiazol-2-yl)propanamide] | ≤ 631 | 108 to 119
O=C(Nc1nccs1)[C@H](CC1CCCCC1)N1CCN(S(=O)(=O)N2CCCC2)CC1=O [Example 229, (S)-3-cyclohexyl-2-(2-oxo-4-(pyrrolidin-1-ylsulfonyl)piperazin-1-yl)-N-(thiazol-2-yl)propanamide] | ≤ 631 | 108 to 119
O=C(Nc1nccs1)[C@H](CC1CCCCC1)N1CCN(C(=S)NCCN2CCCCC2)CC1=O [Example 121, (S)-3-cyclohexyl-2-(2-oxo-4-(2-(piperidin-1-yl)ethylcarbamothioyl)piperazin-1-yl)-N-(thiazol-2-yl)propanamide] | ≤ 631 | 97.1 to 107
O=C(Nc1ncc(F)s1)[C@H](CC1CCOCC1)N1CCN(S(=O)(=O)C2CC2)CC1=O [Example 21, (S)-2-(4-(cyclopropylsulfonyl)-2-oxopiperazin-1-yl)-N-(5-fluorothiazol-2-yl)-3-(tetrahydro-2H-pyran-4-yl)propanamide] | 1580 to 2510 | 108 to 119
O=C(Nc1nccs1)[C@H](CC1CCCCC1)N1CCN(S(=O)(=O)c2cc3ccccc3s2)CC1=O [Example 104, (S)-2-(4-(benzo[b]thiophen-2-ylsulfonyl)-2-oxopiperazin-1-yl)-3-cyclohexyl-N-(thiazol-2-yl)propanamide] | ≤ 631 | 74.1 to 97
Cc1n[nH]c(C)c1S(=O)(=O)N1CCN([C@@H](CC2CCCCC2)C(=O)Nc2nccs2)C(=O)C1 [Example 111, (S)-3-cyclohexyl-2-(4-(3,5-dimethyl-1H-pyrazol-4-ylsulfonyl)-2-oxopiperazin-1-yl)-N-(thiazol-2-yl)propanamide] | ≥ 3160 | ≥ 119
O=C(Nc1nccs1)[C@H](CC1CCCCC1)N1CCN(S(=O)(=O)c2ccccc2)CC1=O [Example 79, (S)-3-cyclohexyl-2-(2-oxo-4-(phenylsulfonyl)piperazin-1-yl)-N-(thiazol-2-yl)propanamide] | ≤ 631 | 97.1 to 107
Cc1c(S(=O)(=O)N2CCN([C@@H](CC3CCCCC3)C(=O)Nc3nccs3)C(=O)C2)cnn1-c1ccccc1 [Example 163, (S)-3-cyclohexyl-2-(4-(5-methyl-1-phenyl-1H-pyrazol-4-ylsulfonyl)-2-oxopiperazin-1-yl)-N-(thiazol-2-yl)propanamide] | 1580 to 2510 | ≤ 74
Cc1ccc([N+](=O)[O-])cc1S(=O)(=O)N1CCN([C@@H](CC2CCCCC2)C(=O)Nc2nccs2)C(=O)C1 [Example 199, (S)-3-cyclohexyl-2-(4-(2-methyl-5-nitrophenylsulfonyl)-2-oxopiperazin-1-yl)-N-(thiazol-2-yl)propanamide] | ≤ 631 | 74.1 to 97
O=C(O)c1ccc(S(=O)(=O)N2CCN([C@@H](CC3CCCCC3)C(=O)Nc3nccs3)C(=O)C2)cc1 [Example 91, (S)-4-(4-(3-cyclohexyl-1-oxo-1-(thiazol-2-ylamino)propan-2-yl)-3-oxopiperazin-1-ylsulfonyl)benzoic acid] | ≥ 3160 | ≤ 74
O=C(Nc1ncc(Cl)s1)C(CC1CCOCC1)N1CCN(S(=O)(=O)C2CC2)CC1=O (stereo not shown) [Example 23, N-(5-chlorothiazol-2-yl)-2-(4-(cyclopropylsulfonyl)-2-oxopiperazin-1-yl)-3-(tetrahydro-2H-pyran-4-yl)propanamide] | 1580 to 2510 | ≥ 119
Cc1nccc(-c2cccc(S(=O)(=O)N3CCN([C@@H](CC4CCCCC4)C(=O)Nc4nccs4)C(=O)C3)c2)n1 [Example 169, (S)-3-cyclohexyl-2-(4-(3-(2-methylpyrimidin-4-yl)phenylsulfonyl)-2-oxopiperazin-1-yl)-N-(thiazol-2-yl)propanamide] | 794 to 1260 | 97.1 to 107
O=C(Nc1nccs1)[C@H](CC1CCCCC1)N1CCN(C(=S)NC2CC2)CC1=O [Example 129, (S)-3-cyclohexyl-2-(4-(cyclopropylcarbamothioyl)-2-oxopiperazin-1-yl)-N-(thiazol-2-yl)propanamide] | 1580 to 2510 | 97.1 to 107
N#Cc1cccc(NC(=S)N2CCN([C@@H](CC3CCCCC3)C(=O)Nc3nccs3)C(=O)C2)c1 [Example 116, (S)-2-(4-(3-cyanophenylcarbamothioyl)-2-oxopiperazin-1-yl)-3-cyclohexyl-N-(thiazol-2-yl)propanamide] | ≥ 3160 | ≥ 119
Cc1cc(C)cc(S(=O)(=O)N2CCN([C@@H](CC3CCCCC3)C(=O)Nc3nccs3)C(=O)C2)c1 [Example 195, (S)-3-cyclohexyl-2-(4-(3,5-dimethylphenylsulfonyl)-2-oxopiperazin-1-yl)-N-(thiazol-2-yl)propanamide] | ≤ 631 | ≥ 119
O=C(Nc1nccs1)[C@H](CC1CCCCC1)N1CCN(S(=O)(=O)CC(F)(F)F)CC1=O [Example 93, (S)-3-cyclohexyl-2-(2-oxo-4-(2,2,2-trifluoroethylsulfonyl)piperazin-1-yl)-N-(thiazol-2-yl)propanamide] | 1580 to 2510 | ≥ 119
O=C(Nc1nccs1)[C@H](CC1CCCCC1)N1CCN(S(=O)(=O)c2ccc(-c3cnco3)s2)CC1=O [Example 161, (S)-3-cyclohexyl-2-(4-(5-(oxazol-5-yl)thiophen-2-ylsulfonyl)-2-oxopiperazin-1-yl)-N-(thiazol-2-yl)propanamide] | 1580 to 2510 | 97.1 to 107
O=C(Nc1nccs1)[C@H](CC1CCCCC1)N1CCN(S(=O)(=O)c2ccc(Oc3ccccc3)nc2)CC1=O [Example 209, (S)-3-cyclohexyl-2-(2-oxo-4-(6-phenoxypyridin-3-ylsulfonyl)piperazin-1-yl)-N-(thiazol-2-yl)propanamide] | 1580 to 2510 | ≤ 74
O=C(Nc1nccs1)[C@H](CC1CCCCC1)N1CCN(S(=O)(=O)c2ccc(Cl)cc2)CC1=O [Example 43, (S)-2-(4-(4-chlorophenylsulfonyl)-2-oxopiperazin-1-yl)-3-cyclohexyl-N-(thiazol-2-yl)propanamide] | 794 to 1260 | 74.1 to 97
O=C(Nc1nccs1)[C@H](CC1CCCCC1)N1CCN(S(=O)(=O)Cc2ccc(C(F)(F)F)cc2)CC1=O [Example 210, (S)-3-cyclohexyl-2-(2-oxo-4-(4-(trifluoromethyl)benzylsulfonyl)piperazin-1-yl)-N-(thiazol-2-yl)propanamide] | ≥ 3160 | ≤ 74
O=C(Nc1nccs1)[C@H](CC1CCCCC1)N1CCN(S(=O)(=O)c2csc3ccccc23)CC1=O [Example 50, (S)-2-(4-(benzo[b]thiophen-3-ylsulfonyl)-2-oxopiperazin-1-yl)-3-cyclohexyl-N-(thiazol-2-yl)propanamide] | 794 to 1260 | ≤ 74
O=C(Nc1nccs1)[C@H](CC1CCCCC1)N1CCN(S(=O)(=O)C2CC2)CC1=O [Example 96, (S)-3-cyclohexyl-2-(4-(cyclopropylsulfonyl)-2-oxopiperazin-1-yl)-N-(thiazol-2-yl)propanamide] | 794 to 1260 | 108 to 119
N#Cc1cccc(S(=O)(=O)N2CCN([C@@H](CC3CCCCC3)C(=O)Nc3nccs3)C(=O)C2)c1 [Example 62, (S)-2-(4-(3-cyanophenylsulfonyl)-2-oxopiperazin-1-yl)-3-cyclohexyl-N-(thiazol-2-yl)propanamide] | 794 to 1260 | 108 to 119

Reference: patent US8173645B2 (Takeda San Diego, Inc., priority 2007, dated 2012)
